Data on 2 compounds can be found in patent US8410089B2, “Fused heterocyclic ring compound” (Takeda Pharmaceutical Company Limited, priority 2009, dated 2013).

SMILES strings stand for the structures.

Assay [1] deals with male Wistar fatty rats. The assay is described as follows: Oral glucose tolerance test (OGTT), hypoglycemic action. Type of assay: in vivo, rat. The following applies: 10 mg/kg oral; for blood glucose lowering rate (%): OGTT in WF rats, decrease rate of AUC0-120min with control group as 100%, **p ≦ 0.01 vs control; for plasma glucose AUC0-120 min: 22-week-old WF rats fasted overnight, glucose 1 g/kg oral 60 min after compound, control group 32734.2. On the procedure: A hypoglycemic action of the compound of the present invention was examined in an oral glucose tolerance test (OGTT) using male Wistar fatty rats (WF rat, TAKEDA RABICS).
First, 22-week-old WF rats fasted overnight were divided into groups (6 per group), and blood samples were collected and used as plasma samples before drug administration (−60 min). Thereafter, 0.5% methylcellulose (control group) and a test compound was orally administered at 10 mg/kg. At 60 min after compound administration, each individual was loaded by oral administration of glucose at 1 g/kg, and the blood was drawn before glucose loading (0 min) and 10, 30, 60 and 120 min after loading. The plasma glucose concentration was measured using L type Waco Glu2 (Wako) and Hitachi automatic analyzer 7080 (Hitachi Instruments Service Co., Ltd.). The 0-120 min area under time curve (AUC0-120min) and the decrease rate when the control group was 100% were calculated from the plasma glucose values measured.

In assay [2] the target is T1, human GPR119 (Homo sapiens, UniProt Q8TDV5).
T1 construct: expressed in transfected cells
T1 sequence (Q8TDV5 1-335): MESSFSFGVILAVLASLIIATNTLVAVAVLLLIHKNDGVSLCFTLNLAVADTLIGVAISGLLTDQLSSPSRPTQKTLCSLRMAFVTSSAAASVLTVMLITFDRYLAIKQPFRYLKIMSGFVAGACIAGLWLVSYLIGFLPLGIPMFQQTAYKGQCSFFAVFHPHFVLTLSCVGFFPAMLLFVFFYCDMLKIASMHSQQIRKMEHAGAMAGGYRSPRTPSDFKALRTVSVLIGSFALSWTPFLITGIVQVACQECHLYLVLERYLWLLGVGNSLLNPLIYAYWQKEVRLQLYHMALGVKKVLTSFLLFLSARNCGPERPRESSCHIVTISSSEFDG
Kind of assay: Human GPR119 agonist activity with increase of intracellular cAMP concentration as index (CRE-luciferase reporter assay in hGPR119/CRE-luc/CHO(dhfr-) cells). The assay is classed as cell-based. The following applies: 1 μM test compound, 2 hr incubation; luciferase activity with 10 μM N-[4-(methylsulfonyl)phenyl]-5-nitro-6-{4-[4-(trifluoromethoxy)phenoxy]piperidin-1-yl}pyrimidin-4-amine = 100%, DMSO = 0%. On the procedure: Evaluation of Human GPR119 Agonist Activity with Increase of Intracellular Camp Concentration as Index
(1) Construction of Expression Plasmid of Human GPR119 Gene
Using High Fidelity RNA PCR Kit (Takara Bio Inc.), human GPR119 gene was cloned by PCR using cDNA library synthesized from human brain mRNA (Clontech) as a template and synthetic DNA having the following sequence. Primer 1 and Primer 2 were is prepared by adding cleavage sites for Sal I and Nhe I based on the base sequence information of human GPR119 gene.
PCR was performed using Pyrobest DNA polymerase (Takara Bio Inc.). The obtained PCR product was cloned to pUC118 (Takara Bio Inc.), and the base sequence was […] and digested with restriction enzymes Sal I, Nhe I. The obtained DNA fragment was inserted into an animal cell expression vector pAKKO-111H (plasmid same as pAKKO-1.111H described in Biochem. Biophys. Acta, Hinuma, S. et al., 1219, 251-259 (1994)) similarly digested with Sal I, Nhe I, whereby an expression plasmid pAKKO-111H/hGPR119 was prepared.
(2) Construction of Reporter Plasmid
Zeocin resistance gene was cloned by PCR using plasmid pcDNA3.1/Zeo (Invitrogen) as a template, synthetic DNA having the following sequences wherein cleavage sites for restriction enzymes Sal I and BamH I are added to before and after a region containing SV40 Ori and a region containing SV40pA, which are located at the upstream and downstream of Zeocin resistance gene of this plasmid, as a primer set, and KOD polymerase (TOYOBO).
The obtained PCR product was inserted into pCR-BluntII (Invitrogen). A fragment containing a Zeocine resistance gene obtained by digesting the plasmid with restriction enzymes Sal I and BamH I was inserted into plasmid pGL3(R2.2)-Basic Vector (promega) similarly digested with Sal I and Bam HI to give Zeocin resistance plasmid pGL3(R2.2)/Zeocin-Basic Vector.
A reporter plasmid containing 4 cAMP responsive elements (CRE) connected in tandem was prepared using the following 5′-terminal phosphorylated synthetic DNA.
First, a DNA fragment containing a CRE sequence obtained by annealing CRE-Upper and CRE-Lower and elongating with KOD polymerase was inserted into pCR-BluntII to give pCR-BluntII-CRE. A fragment cleaved from pCR-BluntII-CRE with restriction enzymes Kpn I and Hind III was inserted into pGL3(R2.2)/Zeocin-Basic Vector similarly digested with Kpn I and Hind III to give reporter plasmid pGL3(R2.2)/Zeocin-CRE-luc.
(3) Introduction of Human GPR119 Gene and Reporter Gene into CHO(dhfr-) Cells and Acquirement of Expressing Cell
CHO(dhfr-) cells in MEMα (minimum essential medium alpha) (Nikken bio medical laboratory) medium containing 10% fetal bovine serum, 100 U/mL penicillin and 100 μg/mL streptomycin (Invitrogen) were detached by a treatment with trypsin-EDTA (ethylenediaminetetraacetic acid) (Invitrogen), the cells were washed with PBS (Phosphate-buffered saline), centrifuged (1000 rpm, 5 min) and suspended in PBS at a cell density of 1×10^7 cells/mL. Then, DNA was introduced into the cell by a gene pulser (Bio-Rad) under the following conditions. That is, 1×10^7 cells, plasmid pGL3(R2.2)/Zeocin-CRE-luc (15 μg), which was obtained in (2) and linearized with BssH II, and pAKKO-111H (5 μg) were added in a 0.4 cm gap cuvette, and the mixture was electroporated at voltage […], capacitance 950 μF. The cells were placed in the above-mentioned medium, cultured for 24 hr, and the cells were detached and centrifuged. The cells were diluted to 250 cells/well, plated in a 96 well plate (Corning) and cultivated in a CO2 incubator at 37° C. to give a transformant. Then, forskolin was added to the obtained transformant and a strain (CRE-luc/CHO(dhfr-) cell) that induces luciferase expression was selected. […]

Turning to `CC(C)SC(=O)N1CCC(Oc2cc(N3CCc4cc(S(C)(=O)=O)ccc43)ncn2)CC1` [Example 35, S-(1-methylethyl)4-({6-[5-(methylsulfonyl)-2,3-dihydro-1H-indol-1-yl]pyrimidin-4-yl}oxy)piperidine-1-carbothioate], in assay [1], the “blood glucose lowering rate (%)” value was 23.0** % and the “plasma glucose AUC0-120 min” value worked out at 25212.5 mg·min/dL. In assay [2], the “GPR119 agonist activity (%) at 1 μM concentration” value amounted to 82%.
The like results for `CCc1cnc(N2CCC(Oc3cc(N4CCc5cc(S(C)(=O)=O)ccc54)ncn3)CC2)nc1` [Example 33, 1-(6-{[1-(5-ethylpyrimidin-2-yl)piperidin-4-yl]oxy}pyrimidin-4-yl)-5-(methylsulfonyl)-2,3-dihydro-1H-indole] were, in that order, 23.4** %, 25073.3 mg·min/dL and 74%.
